Counter-ions that a name gives are not always drawn.
How the values were obtained:
[1] = Acute Toxicity (death within 5 days); settings: mouse, in vivo, oral, death in 5 days (LD50 in the method text), read-out: ED50
Experimental: ddy Male mice (body weight: 25-30 g) were used in groups each of which consisted of 5-6 mice. A test compound was orally administered. Mice which died in 5 days were counted. Death rate (%) wa calculated in accordance with the following calculation formula, and LD50 (mg/Kg) was determined therefrom. [formula]

[2] = system: mice; assay: Maximal Electroshock Seizure Test (tonic-extensor convulsions of hind legs); format: in vivo, ddy Male mice; settings: Mus musculus; antiepileptic action; oral, electric shock 1 hour after dosing (200 Hz, 50 mA, 0.2 second)
Experimental: ddy Male mice (body weight: 25-30 g) were used in groups each of which consisted of 5-10 mice. A test compound was orally administered. One hour later, an electric shock (200 Hz, 50 mA, 0.2 second) was applied through corneal electrodes. […] Antiepileptic action (%) was calculated in accordance with the following calculation formula, and ED50 (mg/Kg) was determined therefrom. [formula]

[3] = in vivo; set-up: species or system ddy Male mice; settings: mouse, po
Experimental: ddy Male mice (body weight: 25-30 g) were used in groups each of which consisted of 5-10 mice. A test compound was orally administered One hour later, each mouse was placed on a rod which rotated a full turn per second. Mice which fell down within 120 seconds were counted. Rotorod action (%) was calculated in accordance with the following calculation formula, and ED50 (mg/Kg) was determined therefrom. [formula]

[4] = in vivo; set-up: species or system ddy Male mice; settings: mouse, po; remark: listed apart in the source
Experimental: ddy Male mice (body weight: 25-30 g) were used in groups each of which consisted of 5-10 mice. A test compound was orally administered. One hour later, each mouse was caused to hold with the fore paws thereof a stainless steel wire whose diameter was 1.5 mm. […] Traction activity (%) was calculated in accordance with the following calculation formula, and ED50 (mg/Kg) was determined therefrom. [formula]

Row | Structure (SMILES) | LD50 at 120 h [1] [mg/kg] | ED50 [2] [mg/kg] | TD50 at 1 h [3] [mg/kg] | TD50 at 1 h [4] [mg/kg]
1 | Cl.c1ccc(-c2cc(-n3cc(Cn4ccnc4)c4ccccc43)on2)cc1 [Example 1, 1-(3-phenyl-5-isoxazolyl)-3-(1-imidazolyl)methylindole hydrochloride] | > 1000 | 9 | 500 | > 750
2 | Cl.Fc1ccc(-c2cc(-n3cc(Cn4ccnc4)c4ccccc43)on2)cc1 [Example 3, 1-{3-(4-Fluorophenyl)-5-isoxazolyl)-3-(1-imidazolyl)methylindole hydrochloride] |  | 20 to 40 |  | 
3 | Cl.Clc1ccc(-c2cc(-n3cc(Cn4ccnc4)c4ccccc43)on2)cc1 [Example 4, 1-{3-(4-Chlorophenyl)-5-isoxazolyl}-3-(1-imidazolyl)methylindole hydrochloride] |  | 20 to 40 |  | 
4 | Cc1ccc(-c2cc(-n3cc(Cn4ccnc4)c4ccccc43)on2)cc1 [Example 5, 1-(3-(p-Toluyl)-5-isoxazolyl}-3-(l-imidazolyl)-methylindole hydrochloride] |  | 16 |  | 
5 | COc1ccc(-c2cc(-n3cc(Cn4ccnc4)c4ccccc43)on2)cc1.Cl [Example 6, 1-{3-(4-Methoxyphenyl)-5-isoxazolyl}-3-(1-imidazolyl)methylindol hydrochloride] | > 1000 | 7 | > 750 | > 750
6 | Cl.N#Cc1ccc(-c2cc(-n3cc(Cn4ccnc4)c4ccccc43)on2)cc1 [Example 7, 1-(3-(4-Cyanophenyl)-5-isoxazolyl)-3-(1-imidazolyl)methylindole hydrochloride] |  | 20 to 40 |  | 
7 | Cl.FC(F)(F)c1ccc(-c2cc(-n3cc(Cn4ccnc4)c4ccccc43)on2)cc1 [Example 8, 1-{3-(4-Trifluoromethylphenyl)-5-isoxazolyl}-3-(1-imidazolyl)methylindole hydrochloride] |  | 20 to 40 |  | 
8 | Cl.Clc1ccccc1-c1cc(-n2cc(Cn3ccnc3)c3ccccc32)on1 [Example 9, 1-{3-(2-Chlorophenyl)-5-isoxazolyl}-3-(1-imidazolyl)methylindole hydrochloride] |  | 20 to 40 |  | 
9 | Cl.Clc1cccc(-c2cc(-n3cc(Cn4ccnc4)c4ccccc43)on2)c1 [Example 10, 1-{3-(3-Chlorophenyl)-5-isoxazolyl)-3-(1-imidazolyl)methylindole hydrochloride] |  | 20 to 40 |  | 
10 | COc1cccc(-c2cc(-n3cc(Cn4ccnc4)c4ccccc43)on2)c1.Cl [Example 11, 1-(3-(3-Methoxyphenyl)-5-isoxazolyl}-3-(1-imidazolyl)methylindole hydrochloride] | > 1000 | 14 | > 750 | > 750
11 | O=C1NC(=O)C(c2ccccc2)(c2ccccc2)N1 [Phenytoin.Na, reference compound] | 300 to 500 | 7 | 186 | 350

Reference: patent publication US5112841A, “Imidazole derivatives and antiepileptics comprising said imidazole derivatives as effective ingredients” (Mitsui Toatsu Chemicals, Incorporated, priority 1990, dated 1992)
